Patent US20250339426A1, “GCN2 MODULATOR FOR TREATING CANCER” (HIBERCELL, INC., priority 2022, published 2025)

Experiments:
[1] = test system: LoVo (human colorectal cancer cells); test: In vivo tumor growth inhibition, LoVo xenograft; design: species or system BALB/c nude mice; conditions: both 1 and 3 mg/kg twice daily oral
Experimental: (§1) LoVo (human colorectal cancer cells): Female 6-8 weeks old BALB/c nude mice were inoculated subcutaneously on the right flank with LoVo tumor cells (5×10^6) in 0.1 ml of EMEM medium without serum for tumor development. The treatments were started when the mean tumor size reached approximately 243 mm^3 at Day 16 post inoculation and continued until end of study by twice daily oral gavage dosing of HC-7366 at listed doses (vehicle, 0.3 mg/kg HC-7366, 1 mg/kg HC-7366, 3 mg/kg HC-7366, 10 mg/kg HC-7366, or 30 mg/kg HC-7366, FIGS. 8-9).
(§2) [formula] • 2.2.2 Tumor Measurements: The measurement of tumor size was conducted three times weekly with a caliper and recorded. The tumor volume (mm^3) was estimated using the formula: TV=a×b^2/2, where “a” and “b” is long and short diameters of a tumor, respectively. Tumor volume was calculated using the formula [tumor volume (mm^3)=π/6×length×width^2).
(§3) Regression was calculated using the formula=100×ΔT/T initial, if ΔT<0. Animals with 0 mm^3 tumor volume (no measurable tumor) for three consecutive measurements were considered as complete responders and animals with 50% tumor regressions were partial responders.

[2] = test system: LNCaP (human prostate cancer cells); test: In vivo tumor growth inhibition, LNCaP xenograft; design: species or system NOD SCID mice; conditions: ≥3 mg/kg twice daily oral
Experimental: LNCaP (human prostate cancer cells): Male 6-8 weeks old NOD SCID mice were inoculated subcutaneously on the right flank with LNCaP tumor cells (1×10^7) in 0.1 ml with Matrigel (1:1) in RPMI1640 with 10% fetal bovine serum (FBS) for tumor development. The treatments were started when the mean tumor size reached approximately 207 mm^3 at Day 14 post inoculation and continued until end of study by twice daily oral gavage dosing of HC-7366 at listed doses (vehicle, 0.3 mg/kg HC-7366, 1 mg/kg HC-7366, 3 mg/kg HC-7366, 10 mg/kg HC-7366, or 30 mg/kg HC-7366 twice daily, FIG. 14).
as §2, §3

[3] = test system: OCI-AML2 (human AML cancer cells); test: In vivo tumor growth inhibition, OCI-AML2 xenograft; design: species or system NOD SCID mice
Experimental: OCI-AML2 (human AML cancer cells): Female 6-8 weeks old NOD SCID mice were inoculated subcutaneously on the right flank with OCI-AML2 tumor cells (5×10^6) in RPMI 1640 without serum for tumor development. The treatments were started when the mean tumor size reached approximately 149 mm^3 at Day 7 after cell inoculation and continued until end of study by twice daily oral gavage dosing of HC-7366 at listed doses (vehicle, 0.3 mg/kg HC-7366, 1 mg/kg HC-7366, 3 mg/kg HC-7366, 10 mg/kg HC-7366, or 30 mg/kg HC-7366, FIG. 19).
as §2, §3

MOLM-16 xenograft tumors = test: Metabolomic analysis of MOLM-16 xenograft tumors; format: in vivo, mice; conditions: four days
Experimental: MOLM-16 xenograft tumors were treated with Vehicle or HC-7366 (0.3, 1, 3, 10 or 30 mg/kg) for four days, and snap frozen tumors were collected for metabolomic analysis (n=12). Metabolic analysis was performed at Metabolon on the LC/MS/MS and Polar LC platforms. Data was normalized to Vehicle group and Welch's two-sample t-test was performed for statistical analysis. Heat maps show metabolite levels normalized to vehicle control (FIGS. 90, 94, 102, and 107).

FaDu tumors and plasma = test: Metabolomic analysis of tumor and plasma, FaDu tumor bearing mice; format: in vivo
Experimental: (§4) FaDu tumor bearing mice were treated with vehicle or HC-7366 (1, 3, or 30 mg/kg) twice a day orally for three days, and on the morning of Day 4 an AM dose was administered and tumors and plasma were collected 1 hr after dose. Tumor and plasma samples were extracted and split into equal parts for analysis on LC/MS/MS and Polar LC platforms. Proprietary software was used to match ions to an in-house library of standards for metabolite identification and for metabolite quantitation by peak area integration (Metabolon). Proteomic analysis on tumors was performed at MS Bioworks. The equivalent of 3 μg of peptide from each pooled fraction was analyzed by nano LC-MS/MS with a Waters M-Class HPLC system interfaced to a ThermoFisher Fusion Lumos mass spectrometer. Histograms show metabolite levels of treatment groups normalized to vehicle control (FIGS. 115-122).

[4] = test system: oxidative phosphorylation pathway in FaDu tumors; test: Non-targeted proteomic analysis of FaDu tumors; format: in vivo, mice
Experimental: as §4
FaDu tumor bearing mice were treated with HC-7366 at 3 and 30 mg/kg twice a day for four days. Tumors were harvested for non-targeted proteomic analysis.

[5] = test system: upstream regulators of differentially expressed genes in DLD-1 tumors; test: RNAseq analysis of DLD-1 tumors; format: in vivo, mice
Experimental: as §1, with “DLD-1” for “LoVo”, “RPMI1640” for “EMEM”, “195” for “243”, “7” for “16”, “FIG. 10). For the time course study, tumors were harvested at Days 4, 7 and 14. Tumors were then used for IHC and RNAseq experiments (see Example 21).” for “FIGS. 8-9).”
DLD-1 tumor bearing mice were treated with HC-7366 at 0.3, 1, 3, 10 and 30 mg/kg twice a day for 14 days. Tumors were harvested for RNAseq analysis at Day 4, Day 7 and Day 14 (FIG. 128).

Structure (SMILES): CNC(=O)c1ncn2cc(-c3c(F)ccc(NS(=O)(=O)c4cc(Cl)cnc4OC)c3F)ncc12 [HC-7366, 6-(3-((5-chloro-2-methoxypyridine)-3-sulfonamido)-2,6-difluorophenyl)-N-methylimidazo[1,5-a]pyrazine-1-carboxamide]
- tumor growth inhibition [1]: 94%
- tumor growth inhibition [2]: 61-65%
- TGI ([3]; 10 mg/kg twice daily oral): about 47%
- TGI ([3]; 30 mg/kg twice daily oral): ~51%
- aspartate and cysteine levels (MOLM-16 xenograft tumors; 0.3-30 mg/kg): decreased
- glutathione levels (GSH and GSSG) (MOLM-16 xenograft tumors; 0.3-30 mg/kg): significantly reduced
- levels of most amino acids (MOLM-16 xenograft tumors; 0.3-30 mg/kg): significantly elevated
- metabolites involved in pyrimidine synthesis (MOLM-16 xenograft tumors; 0.3-30 mg/kg): significantly reduced
- γ-glutamyl-amino acids (MOLM-16 xenograft tumors; 0.3-30 mg/kg): enhanced
- aspartate metabolism and polyamine-related metabolites (putrescine, spermine, MTA) (MOLM-16 xenograft tumors; all doses): significantly reduced
- urea levels (FaDu tumors and plasma; plasma): significantly increased
- oxidized glutathione levels (FaDu tumors and plasma; tumor): significantly reduced
- reduced glutathione levels (FaDu tumors and plasma; tumor): did not alter
- gamma glutamyl amino acid levels (FaDu tumors and plasma; tumor and plasma): significantly increased
- levels of several amino acids (FaDu tumors and plasma; tumor and plasma, 1, 3, or 30 mg/kg twice a day, Day 4): significantly elevated
- levels of arginine, arginosuccinate and citrulline (FaDu tumors and plasma; tumors): significantly increased
- pyrimidine synthesis metabolites (FaDu tumors and plasma; tumors): significantly reduced
- oxidative phosphorylation pathway, pathway analysis (IPA) ([4]; 3 mg/kg twice a day, four days): strong repression
- protein subunits of the electron transport chain ([4]; 3 mg/kg, relative to vehicle): decreased
- HIF1α, SMAD4 and E2F1 signature ([5]; 0.3-30 mg/kg twice a day): reduction
- ATF4 (upstream regulator of differentially expressed genes) ([5]; all doses (0.3-30 mg/kg twice a day)): significantly induced
